# Assay results: patent US6855730B2, “3-methylidenyl-2-indolinone modulators of protein kinase” (Sugen, Inc., priority 1998, dated 2005)
# Target: T1, 3T3 cell line genetically engineered to express human EGF-R (Homo sapiens, UniProt P00533)
# T1 construct: expressed in transfected cells; host or cells: 3T3
# Assay: EGF-induced BrdU incorporation assay
# Type: cell-based
# Conditions: read-out: BrdU EGF driven IC50
# Experimental: The cellular/catalytic assays described herein are performed in an ELISA format. The general procedure is as follows: a compound is introduced to cells expressing the test kinase, either naturally or recombinantly, for a selected period of time after which, if the test kinase is a receptor, a ligand known to activate the receptor is added. The cells are lysed and the lysate is transferred to the wells of an ELISA plate previously coated with a specific antibody recognizing the substrate of the enzymatic phosphorylation reaction. Non-substrate components of the cell lysate are washed away and the amount of phosphorylation on the substrate is detected with an antibody specifically recognizing phosphotyrosine compared with control cells that were not contacted with a test compound. The cellular/biologic assays described herein measure the amount of DNA made in response to activation of a test kinase, which is a general measure of a proliferative response. The general procedure for this assay is as follows: a compound is introduced to cells expressing the test kinase, either naturally or recombinantly, for a selected period of time after which, if the test kinase is a receptor, a ligand known to activate the receptor is added. After incubation at least overnight, a DNA labeling reagent such as Bromodeoxyuridine (BrdU) or 3H-thymidine is added. The amount of labeled DNA is detected with either an anti-BrdU antibody or by measuring radioactivity and is compared to control cells not contacted with a test compound. […]
# Protocol • (1) Cells are seeded at 8000 cells/well in 10% CS, 2mM Gin in DMEM, in a 96 well plate. Cells are incubated overnight at 37° C. in 5% CO2. • (2) After 24 hours, the cells are washed with PBS, and then are serum starved in serum free medium (0% CS DMEM with 0.1% BSA) for 24 hours. • (3) On day 3, ligand (EGF, 2 nM, prepared in DMEM with 0.1% BSA) and test compounds are added to the cells simultaneously. The negative control wells receive serum free DMEM with 0.1% BSA only, the positive control cells receive the ligand (EGF) but no test compound. Test compounds are prepared in serum free DMEM with ligand in a 96 well plate, and serially diluted for 7 test concentrations. • (4) After 20 hours of ligand activation, diluted BrdU labeling reagent (1:100 in DMEM, 0.1% BSA) is added and the cells are incubated with BrdU (final concentration=10 μM) for 1.5 hours. • (5) After incubation with labeling reagent, the medium is removed by decanting and tapping the inverted plate on a paper towel. FixDenat solution is added (50 μl/well) and the plates are incubated at room temperature for 45 minutes on a plate shaker. • (6) The FixDenat solution is thoroughly removed by decanting and tapping the inverted plate on a paper towel. Milk is added (5% dehydrated milk in PBS, 200 μl/well) as a blocking solution and the plate is incubated for 30 minutes at room temperature on a plate shaker. • (7) The blocking solution is removed by decanting and the wells are washed once with PBS. Anti-BrdU-POD solution (1:100 dilution in PBS, 1% BSA) is added (100 μ/well) and the plate is incubated for 90 minutes at room temperature on a plate shaker. • (8) The antibody conjugate is thoroughly removed by decanting and rinsing the wells 5 times with PBS, and the plate is dried by inverting and tapping on a paper towel. • (9) TMB substrate solution is added (100 μl/well) and incubated for 20 minutes at room temperature on a plate shaker until color development is sufficient for photometric detection. • (10) The absorbance of the samples are measured at 410 nm (in “dual wavelength” mode with a filter reading at 490 nm, as a reference wavelength) on a Dynatech ELISA plate reader.
row,SMILES,IC50 [µM]
1,"COc1ccc(C=C2C(=O)Nc3ccccc32)cc1-c1cccc(NC(C)=O)c1 [Example 29, N-[2′-Methoxy-5′-(2-oxo-1,2-dihydroindol-3-ylidenemethyl)-biphenyl-3-yl]-acetamide]",15.2
2,"COc1cc(C)c(/C=C2/C(=O)Nc3ccc(F)cc32)cc1C(C)C [Example 30, 5-Fluoro-3-(5-isopropyl-4-methoxy-2-methyl-benzylidene)-1,3-dihydroindol-2-one]",30.3
3,"COc1ccc(/C=C2/C(=O)Nc3cc(NC(C)=O)ccc32)cc1-c1cccs1 [Example 31, N-[3-(4-Methoxy-3-thiophen-2-ylbenzylidene)-2-oxo-2,3-dihydro-1H-indol-6-yl]-acetamide]",38.6
4,"COc1ccc(/C=C2/C(=O)Nc3ccccc32)cc1-c1ccsc1 [Example 35, 3-(4-Methoxy-3-thiophen-3-ylbenzylidene)-1,3-dihydroindol-2-one]",28.1
5,"COc1cc(C)c(/C=C2/C(=O)Nc3ccc(Br)cc32)cc1C(C)C [Example 36, 5-Bromo-3-(5-isopropyl-4-methoxy-2-methyl-benzylidene)-1,3-dihydroindol-2-one]",31
6,"COc1cc(/C=C2/C(=O)Nc3ccccc32)c(-c2cccs2)cc1OC [Example 39, 3-(4,5-Dimethoxy-2-thiophen-2-ylbenzylidene)-1,3-dihydroindol-2-one]",16.2
7,"CC(=O)Nc1ccc2c(c1)NC(=O)/C2=C/c1ccc(OCCN2CCOCC2)c(-c2cccs2)c1 [Example 40, N-{3-[4-(2-Morpholin-4-ylethoxy)-3-thiophen-2-ylbenzylidene]-2-oxo-2,3-dihydro-1H-indol-6-yl}-acetamide]",28.6
8,"COc1cc(C)c(/C=C2/C(=O)Nc3ncccc32)cc1C(C)C [Example 45, 3-(5-Isopropyl-4-methoxy-2-methylbenzylidene)-1,3-dihydro-pyrrolo[2,3-b]pyridin-2-one]",> 50
9,"CCOc1cccc(-c2cc(C=C3C(=O)Nc4ccccc43)ccc2OC)c1 [Example 46, 3-(3′-Ethoxy-6-methoxybiphenyl-3-ylmethylene)-1,3-dihydroindol-2-one]",45.7
10,"COc1ccc(/C=C2/C(=O)Nc3ncccc32)cc1C1CCCC1 [Example 47, 3-(3-Cyclopentyl-4-methoxybenzylidene)-1,3-dihydropyrrolo[2,3-b]pyridin-2-one]",> 50
11,"COc1cc(C=C2C(=O)Nc3ccccc32)c(-c2ccccc2OC)cc1OC [Example 49, 3-(4,5,2′-Trimethoxybiphenyl-2-ylmethylene)-1,3-dihydroindol-2-one]",24.1
12,"CC(=O)Nc1ccc2c(c1)NC(=O)/C2=C/c1ccc(OCCN2CCOCC2)c(-c2ccsc2)c1 [Example 50, N-{3-[4-(2-Morpholin-4-ylethoxy)-3-thiophen-3-ylbenzylidene]-2-oxo-2,3-dihydro-1H-indol-6-yl}-acetamide]",37.9
13,"CC(C)c1cc(/C=C2/C(=O)Nc3ccc(Br)cc32)cc(C(C)C)c1OCCN1CCOCC1 [Example 57, 5-Bromo-3-[3,5-diisopropyl-4-(2-morpholin-4-ylethoxy)benzylidene]-1,3-dihydroindol-2-one]",12.3
14,"CCOc1cccc(-c2cc(OC)c(OC)cc2/C=C2/C(=O)Nc3ccccc32)c1 [Example 58, 3-(3′-Ethoxy-4,5-dimethoxybiphenyl-2-ylmethylene)-1,3-dihydroindol-2-one]",27.5
15,"COc1ccc(/C=C2/C(=O)Nc3ccc(Cl)cc32)cc1-c1cccs1 [Example 59, 5-chloro-3-(4-Methoxy-3-thiophen-2-ylbenzylidene)-1,3-dihydroindol-2-one]",44.5
16,COc1ccc(/C=C2/C(=O)Nc3ccc(Cl)cc32)cc1-c1cccnc1 [Example 60],> 50
17,"COc1cccc(-c2cc(OC)c(OC)cc2/C=C2/C(=O)Nc3ccc(Cl)cc32)c1 [Example 61, 5-Chloro-3-(4,5-3′-Trimethoxybiphenyl-2-ylmethylene)-1,3-dihydroindol-2-one]",> 50
